# System: Caco-2 (human colon adenocarcinoma)
# Experiment: MTT antiproliferative assay, 48 h
# Type: cell-based
# Details: Homo sapiens, Caco-2, 48-hour exposition, read-out: Cytotoxicity, IC50, µM CaCo-2
# Method: (§1) About 2000-4000 cells per well (depending on line nature) were placed in 96-well plates and after 24 h compounds were added to the wells. Untreated cells were used as a control. The plates were incubated for 48 h, 37° C., 5% CO2. The number of surviving cells was determined using 3-(4,5-dimethylthiazol-2-yl)-2,5-diphenyltetrazolinium bromide (MTT). MTT-test: after incubating culture medium was removed and 200 µL fresh medium with 20 µL MTT (2 mg/mL in HBSS) was added in each well of the plate. After incubation (3 hr., 37° C., 5% CO2), the medium with MTT was removed and 200 µL DMSO were added at once to each sample. The samples were tested at 540 nm on Thermo Scientific Multiskan EX microplate photometer. The half-maximal inhibitory concentration (IC50) of each compound was calculated using Graph Pad Prism® 3.0.
row,SMILES,IC50
1,"CNc1ccc2cc(S(=O)(=O)N3CC3C(=O)OC)ccc2c1Cl (centres unmarked) [Compound C-3393, Methyl 1-[[5-chloro-6-(methylamino)-2-naphthyl]sulfonyl]aziridine-2-carboxylate]",35 ± 1 µM
2,"COC(=O)[C@@H]1CN1S(=O)(=O)c1ccc(C)cc1 (stereo partly drawn) [Compound C-3535, Methyl (2S)-1-(p-tolylsulfonyl)aziridine-2-carboxylate]",35 ± 7 µM
3,"COC(=O)[C@H]1CN1S(=O)(=O)c1ccc(C)cc1 (stereo partly drawn) [Compound C-3539, Methyl (2R)-1-(p-tolylsulfonyl)aziridine-2-carboxylate]",23 ± 1 µM
4,"COC(=O)[C@@H]1CN1S(=O)(=O)c1cccc2cc(N(C)C)ccc12 (stereo partly drawn) [Compound C-3548, Methyl (2S)-1-[[6-(dimethylamino)-1-naphthyl]sulfonyl]aziridine-2-carboxylate]",45 ± 13 µM
5,"COC(=O)C1CN1S(=O)(=O)c1cccnc1 (centres unmarked) [Compound C-3559, Methyl 1-(3-pyridylsulfonyl)aziridine-2-carboxylate]",260 ± 55 µM
6,"NC(=O)C1CN1S(=O)(=O)c1cccnc1 (centres unmarked) [Compound C-3562, 1-(3-pyridylsulfonyl)aziridine-2-carboxamide]",36 ± 6 µM
7,"COC(=O)[C@H]1CN1S(=O)(=O)c1cccc2cc(N(C)C)ccc12 (stereo partly drawn) [Compound C-3570, Methyl (2R)-1-[[6-(dimethylamino)-1-naphthyl]sulfonyl]aziridine-2-carboxylate]",13 ± 1 µM

# System: MDA-MB-231 (human mammary breast adenocarcinoma)
# Experiment: MTT antiproliferative assay, 48 h
# Type: cell-based
# Details: Homo sapiens, MDA-MB-231, 48-hour exposition, read-out: Cytotoxicity, IC50, µM MDA-MB-231
# Method: as §1
row,SMILES,IC50
1,"CNc1ccc2cc(S(=O)(=O)N3CC3C(=O)OC)ccc2c1Cl (centres unmarked) [Compound C-3393, Methyl 1-[[5-chloro-6-(methylamino)-2-naphthyl]sulfonyl]aziridine-2-carboxylate]",32 ± 4 µM
2,"COC(=O)[C@@H]1CN1S(=O)(=O)c1ccc(C)cc1 (stereo partly drawn) [Compound C-3535, Methyl (2S)-1-(p-tolylsulfonyl)aziridine-2-carboxylate]",107 ± 11 µM
3,"COC(=O)[C@H]1CN1S(=O)(=O)c1ccc(C)cc1 (stereo partly drawn) [Compound C-3539, Methyl (2R)-1-(p-tolylsulfonyl)aziridine-2-carboxylate]",40 ± 5 µM
4,"COC(=O)[C@@H]1CN1S(=O)(=O)c1cccc2cc(N(C)C)ccc12 (stereo partly drawn) [Compound C-3548, Methyl (2S)-1-[[6-(dimethylamino)-1-naphthyl]sulfonyl]aziridine-2-carboxylate]",57 ± 9 µM
5,"COC(=O)C1CN1S(=O)(=O)c1cccnc1 (centres unmarked) [Compound C-3559, Methyl 1-(3-pyridylsulfonyl)aziridine-2-carboxylate]",128 ± 8 µM
6,"NC(=O)C1CN1S(=O)(=O)c1cccnc1 (centres unmarked) [Compound C-3562, 1-(3-pyridylsulfonyl)aziridine-2-carboxamide]",24 ± 2 µM
7,"COC(=O)[C@H]1CN1S(=O)(=O)c1cccc2cc(N(C)C)ccc12 (stereo partly drawn) [Compound C-3570, Methyl (2R)-1-[[6-(dimethylamino)-1-naphthyl]sulfonyl]aziridine-2-carboxylate]",14 ± 3 µM

# System: MCF-7 (human breast adenocarcinoma, estrogen-positive)
# Experiment: MTT antiproliferative assay, 48 h
# Type: cell-based
# Details: Homo sapiens, MCF7, 48-hour exposition, read-out: Cytotoxicity, IC50, µM MCF-7
# Method: as §1
row,SMILES,IC50
1,"CNc1ccc2cc(S(=O)(=O)N3CC3C(=O)OC)ccc2c1Cl (centres unmarked) [Compound C-3393, Methyl 1-[[5-chloro-6-(methylamino)-2-naphthyl]sulfonyl]aziridine-2-carboxylate]",29 ± 3 µM
2,"COC(=O)[C@@H]1CN1S(=O)(=O)c1ccc(C)cc1 (stereo partly drawn) [Compound C-3535, Methyl (2S)-1-(p-tolylsulfonyl)aziridine-2-carboxylate]",81 µM
3,"COC(=O)[C@H]1CN1S(=O)(=O)c1ccc(C)cc1 (stereo partly drawn) [Compound C-3539, Methyl (2R)-1-(p-tolylsulfonyl)aziridine-2-carboxylate]",113 ± 6 µM
4,"COC(=O)[C@@H]1CN1S(=O)(=O)c1cccc2cc(N(C)C)ccc12 (stereo partly drawn) [Compound C-3548, Methyl (2S)-1-[[6-(dimethylamino)-1-naphthyl]sulfonyl]aziridine-2-carboxylate]",37 ± 3 µM
5,"COC(=O)C1CN1S(=O)(=O)c1cccnc1 (centres unmarked) [Compound C-3559, Methyl 1-(3-pyridylsulfonyl)aziridine-2-carboxylate]",154 ± 25 µM
6,"NC(=O)C1CN1S(=O)(=O)c1cccnc1 (centres unmarked) [Compound C-3562, 1-(3-pyridylsulfonyl)aziridine-2-carboxamide]",57 ± 5 µM
7,"COC(=O)[C@H]1CN1S(=O)(=O)c1cccc2cc(N(C)C)ccc12 (stereo partly drawn) [Compound C-3570, Methyl (2R)-1-[[6-(dimethylamino)-1-naphthyl]sulfonyl]aziridine-2-carboxylate]",29 ± 2 µM

# System: HT-1080 (human fibrosarcoma)
# Experiment: MTT antiproliferative assay, 48 h
# Type: cell-based
# Details: 48-hour exposition, read-out: Cytotoxicity, IC50, µM HT-1080
# Method: as §1
row,SMILES,IC50
1,"CNc1ccc2cc(S(=O)(=O)N3CC3C(=O)OC)ccc2c1Cl (centres unmarked) [Compound C-3393, Methyl 1-[[5-chloro-6-(methylamino)-2-naphthyl]sulfonyl]aziridine-2-carboxylate]",0.46 ± 0.04 µM
2,"COC(=O)[C@@H]1CN1S(=O)(=O)c1ccc(C)cc1 (stereo partly drawn) [Compound C-3535, Methyl (2S)-1-(p-tolylsulfonyl)aziridine-2-carboxylate]",84 ± 3 µM
3,"COC(=O)[C@H]1CN1S(=O)(=O)c1ccc(C)cc1 (stereo partly drawn) [Compound C-3539, Methyl (2R)-1-(p-tolylsulfonyl)aziridine-2-carboxylate]",20 ± 1 µM
4,"COC(=O)[C@@H]1CN1S(=O)(=O)c1cccc2cc(N(C)C)ccc12 (stereo partly drawn) [Compound C-3548, Methyl (2S)-1-[[6-(dimethylamino)-1-naphthyl]sulfonyl]aziridine-2-carboxylate]",9.2 ± 1 µM
5,"COC(=O)C1CN1S(=O)(=O)c1cccnc1 (centres unmarked) [Compound C-3559, Methyl 1-(3-pyridylsulfonyl)aziridine-2-carboxylate]",372 ± 23 µM
6,"NC(=O)C1CN1S(=O)(=O)c1cccnc1 (centres unmarked) [Compound C-3562, 1-(3-pyridylsulfonyl)aziridine-2-carboxamide]",31 ± 2 µM
7,"COC(=O)[C@H]1CN1S(=O)(=O)c1cccc2cc(N(C)C)ccc12 (stereo partly drawn) [Compound C-3570, Methyl (2R)-1-[[6-(dimethylamino)-1-naphthyl]sulfonyl]aziridine-2-carboxylate]",12 ± 1 µM

# System: HT-29
# Experiment: Sulforhodamine B antiproliferative assay, 72 h
# Type: cell-based, human
# Details: normal (21% of oxygen), 72-hour exposition
# Method: (§2) Anticancer activity of PDI A1-inhibitors has been also tested in vitro in antiproliferative essay in normoxic and hypoxic conditions as well in estrogen-stimulated cancer cells. In the experiment, cells were seeded on 96-well plates (Sarstedt, Germany) in appropriate culture medium at a density of 10^5 cells/mL 24 h before adding the tested compounds. Cells were treated with each compound in four concentrations in the range 0.1-100 ug/mL. […] After 72 h of compound treatment at 37° C., 5 % CO2 humid atmosphere and in wo different oxygen level conditions: 21% - normal and <1% - hypoxia. In some experiments, the MDA-MB-231 and MCF-7 cells were seeded with or without 200 nM estradiol and after 24 h the tested compounds were added. A previously described sulforhodamine B antiproliferative assay was used with minor modifications (Skehan P et al., 1990). Briefly, cells were fixed with 50 µL/well of 50% (w/v) trichloroacetic acid (Avantor Performance Materials, Gliwice, Poland). After 1 h incubation, plates were washed several times with tap water and 50 µL of 0.4% (w/v) solution of sulforhodamine B (Sigma-Aldrich, Germany) in 1% (v/v) acetic acid (Avantor Performance Materials, Gliwice, Poland) was added to each well. After 30 min incubation at room temperature, unbound dye was washed out with 1% (v/v) acetic acid, whereas bound dye was solubilized with 10 mM unbuffered TRIS (Avantor Performance Materials, Gliwice, Poland) solution. The entire procedure was performed using a BioTek EL-406 washing station (BioTek Instruments, USA). After additional 30 min, absorbance was read using a Biotek Hybrid H4 reader (BioTek Instruments, USA) at 540 nm wavelength. MTT assay was used alternatively for HL-60 cell line and in the experiment in which estrogens are added (specified in the table legend). Absorbance was measured using a Biotek Hybrid H4 reader at 570 nm wavelength for MTT assay.
# (§3) Compounds at each concentration were tested in triplicate in a single experiment and each experiment was repeated at least three times independently.
# (§4) Results of in vitro antiproliferative effects are shown in Table 3 and Table 4 and are presented as mean IC50 ± SD calculated using the Prolab-3 system based on Cheburator 0.4 software.
row,SMILES,IC50 [µg/ml] HT-29 normal
1,"N.N.[Cl][Pt][Cl] [Cisplatin, reference compound]",2.82 ± 0.6 µg/mL

# Target: T1, PDI A1 (Homo sapiens, UniProt P07237)
# T1 construct: purchased Mybiosource; host or cells: E. coli
# Experiment: Insulin turbidometric assay, inhibition of PDI A1
# Type: biochemical
# Details: insulin reduction, turbidity at 650 nm, 60 min incubation at 37° C.; read-out: Inhibition of PDI A1 (EC 50)
# Method: The inhibitory effects compounds of invention on activity of PDI A1 was assess based on the insulin turbidometric assay. Enzymatic activity of PDIA1 was confirmed by measuring the turbidity increase at 650 nm due to insulin reduction. The assay mixture was prepared by addition 10 ug/ml PDIA1 (E.coli recombinant protein; Mybiosource), 0.1 mM phosphate buffer (pH7.6), 1 mM EDTA, 0.087 mM DTT and with or without tested compound and was incubated for 60 min, at 37° C. Reaction was started by addition insulin and DTT. Final concentration of insulin and DTT in assay mixture was 0.15 mM and 0.174 mM, respectively. Turbidity was detected at 650 nm against reference samples without PDI A1s. The measurements were performed at 650 nm using 120-s recordings.
# T1 sequence (P07237 18-508, species assumed): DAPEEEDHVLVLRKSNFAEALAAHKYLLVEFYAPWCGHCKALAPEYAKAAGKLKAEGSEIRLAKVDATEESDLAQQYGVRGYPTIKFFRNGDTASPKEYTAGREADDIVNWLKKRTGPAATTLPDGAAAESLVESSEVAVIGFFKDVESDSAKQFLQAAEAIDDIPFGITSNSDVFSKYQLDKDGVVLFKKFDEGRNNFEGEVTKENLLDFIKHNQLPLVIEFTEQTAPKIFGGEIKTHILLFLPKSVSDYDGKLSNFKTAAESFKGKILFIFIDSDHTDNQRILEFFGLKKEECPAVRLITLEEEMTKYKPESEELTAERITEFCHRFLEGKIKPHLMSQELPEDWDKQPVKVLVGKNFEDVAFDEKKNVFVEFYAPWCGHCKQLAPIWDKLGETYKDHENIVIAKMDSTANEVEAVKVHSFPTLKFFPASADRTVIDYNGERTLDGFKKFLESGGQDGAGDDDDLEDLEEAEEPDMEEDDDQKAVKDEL
row,SMILES,EC50
1,"COC(=O)C1CN1S(=O)(=O)c1ccc([N+](=O)[O-])cc1 (centres unmarked) [Compound C-3212, Methyl 1-(4-nitrophenyl)sulfonylaziridine-2-carboxylate]",34 µM
2,"CNc1ccc2cc(S(=O)(=O)N3CC3C(=O)OC)ccc2c1Cl (centres unmarked) [Compound C-3393, Methyl 1-[[5-chloro-6-(methylamino)-2-naphthyl]sulfonyl]aziridine-2-carboxylate]",0.34 µM
3,"COC(=O)[C@@H]1CN1S(=O)(=O)c1ccc(C)cc1 (stereo partly drawn) [Compound C-3535, Methyl (2S)-1-(p-tolylsulfonyl)aziridine-2-carboxylate]",11.2 µM
4,"COC(=O)[C@H]1CN1S(=O)(=O)c1ccc(C)cc1 (stereo partly drawn) [Compound C-3539, Methyl (2R)-1-(p-tolylsulfonyl)aziridine-2-carboxylate]",29 µM
5,"COC(=O)[C@@H]1CN1S(=O)(=O)c1cccc2cc(N(C)C)ccc12 (stereo partly drawn) [Compound C-3548, Methyl (2S)-1-[[6-(dimethylamino)-1-naphthyl]sulfonyl]aziridine-2-carboxylate]",6 µM
6,"COC(=O)C1CN1S(=O)(=O)c1cccnc1 (centres unmarked) [Compound C-3559, Methyl 1-(3-pyridylsulfonyl)aziridine-2-carboxylate]",10.6 µM
7,"NC(=O)C1CN1S(=O)(=O)c1cccnc1 (centres unmarked) [Compound C-3562, 1-(3-pyridylsulfonyl)aziridine-2-carboxamide]",29 µM
8,"COC(=O)[C@H]1CN1S(=O)(=O)c1cccc2cc(N(C)C)ccc12 (stereo partly drawn) [Compound C-3570, Methyl (2R)-1-[[6-(dimethylamino)-1-naphthyl]sulfonyl]aziridine-2-carboxylate]",11 µM

# System: not given
# Experiment: not given
# Details: not given
row,SMILES,melting point
1,"COC(=O)C1CN1S(=O)(=O)c1ccc([N+](=O)[O-])cc1 (centres unmarked) [Compound C-3212, Methyl 1-(4-nitrophenyl)sulfonylaziridine-2-carboxylate]",106 to 108 °C
2,"CNc1ccc2cc(S(=O)(=O)N3CC3C(=O)OC)ccc2c1Cl (centres unmarked) [Compound C-3393, Methyl 1-[[5-chloro-6-(methylamino)-2-naphthyl]sulfonyl]aziridine-2-carboxylate]",170 to 172 °C
3,"NC(=O)C1CN1S(=O)(=O)c1cccnc1 (centres unmarked) [Compound C-3562, 1-(3-pyridylsulfonyl)aziridine-2-carboxamide]",147 to 149 °C

# System: MCF-7
# Experiment: Sulforhodamine B antiproliferative assay, 72 h, normal and hypoxia
# Type: cell-based, human
# Details: hypoxia (<1% of oxygen), 72-hour exposition
# Method: as §2, §3, §4
row,SMILES,IC50 [µg/ml] MCF-7 hypoxia
1,"N.N.[Cl][Pt][Cl] [Cisplatin, reference compound]",1.3 ± 0.5 µg/mL

# Same assay, conditions: normal (21% of oxygen), 72-hour exposition
row,SMILES,IC50 [µg/ml] MCF-7 normal
1,"N.N.[Cl][Pt][Cl] [Cisplatin, reference compound]",1.8 ± 0.3 µg/mL

# System: MDA-MB-231
# Experiment: as above
# Type: cell-based, human
# Details: hypoxia (<1% of oxygen), 72-hour exposition
# Method: as §2, §3, §4
row,SMILES,IC50 [µg/ml] MDA-MB-231 hypoxia
1,"N.N.[Cl][Pt][Cl] [Cisplatin, reference compound]",3.1 ± 0.9 µg/mL

# Same assay, conditions: normal (21% of oxygen), 72-hour exposition
row,SMILES,IC50 [µg/ml] MDA-MB-231 normal
1,"N.N.[Cl][Pt][Cl] [Cisplatin, reference compound]",3.2 ± 0.5 µg/mL

# — patent US20230039836A1, “AROMATIC SULPHONAMIDES DERIVATIVES THAT INHIBITS PDI A3, THEIR SYNTHESIS AND USE” (Uniwersytet Jagiellonski, priority 2020, published 2023)
